Test results as given in ChEMBL document CHEMBL1140846, “Convenient QSAR model for predicting the complexation of structurally diverse compounds with beta-cyclodextrins” (Bioorg Med Chem, 2009).

Assay: Binding affinity to beta cyclodextrin

Structure (SMILES)	log Ks
CCCCC[C@H](O)/C=C/[C@@H]1[C@H]2C/C(=C/CCCC(=O)O)O[C@H]2C[C@H]1O [EPOPROSTENOL]	2.94
CCOC(=O)c1ccccc1 [ETHYL BENZOATE]	2.73
CCc1ccccc1 [ETHYLBENZENE]	2.59
OCCO [ETHYLENE GLYCOL]	-0.19
CCOC(=O)c1ccc(O)cc1 [ETHYLPARABEN]	3.01
O=C(O)c1ccccc1Nc1ccccc1 [FENAMIC ACID]	2.89
O=C(O)CCC(=O)c1ccc(-c2ccccc2)cc1 [FENBUFEN]	2.63
CN1C(=O)CN=C(c2ccccc2F)c2cc(Cl)ccc21 [FLUDIAZEPAM]	2.33
O=C(O)c1ccccc1Nc1cccc(C(F)(F)F)c1 [FLUFENAMIC ACID]	3.1
CC1(C)O[C@@H]2C[C@H]3[C@@H]4C[C@H](F)C5=CC(=O)C=C[C@]5(C)[C@@]4(F)[C@@H](O)C[C@]3(C)[C@]2(C(=O)CO)O1 [FLUOCINOLONE ACETONIDE]	3.48
Fc1ccccc1 [FLUOROBENZENE]	1.96
CC(C(=O)O)c1ccc(-c2ccccc2)c(F)c1 (stereo unspecified) [FLURBIPROFEN]	3.69
COC1=CC(=O)C[C@@H](C)[C@]12Oc1c(Cl)c(OC)cc(OC)c1C2=O [GRISEOFULVIN]	1.47
CN1C(=O)NC(=O)C(C)(C2=CCCCC2)C1=O (stereo unspecified) [HEXOBARBITAL]	3.08
NS(=O)(=O)c1cc2c(cc1Cl)NCNS2(=O)=O [HYDROCHLOROTHIAZIDE]	1.76
CC(=O)OCC(=O)[C@@]1(O)CC[C@H]2[C@@H]3CCC4=CC(=O)CC[C@]4(C)[C@H]3[C@@H](O)C[C@@]21C [HYDROCORTISONE ACETATE]	3.51
CCCC(=O)O[C@]1(C(=O)CO)CC[C@H]2[C@@H]3CCC4=CC(=O)CC[C@]4(C)[C@H]3[C@@H](O)C[C@@]21C [HYDROCORTISONE BUTYRATE]	3.23
C[C@]12CCC(=O)C=C1CC[C@@H]1[C@@H]2[C@@H](O)C[C@@]2(C)[C@H]1CC[C@]2(O)C(=O)CO [HYDROCORTISONE]	3.6
Oc1ccc(O)cc1 [HYDROQUINONE]	2.05
Ic1ccccc1 [IODOBENZENE]	2.93
CC(C)CO [ISOBUTANOL]	1.62
CC(C(=O)O)c1cccc(C(=O)c2ccccc2)c1 (stereo unspecified) [KETOPROFEN]	2.85
Cc1ccc(Cl)c(Nc2ccccc2C(=O)O)c1Cl [MECLOFENAMIC ACID]	2.67
CN1CCN=C(c2ccccc2)c2cc(Cl)ccc21 [MEDAZEPAM]	2.4
Cc1cccc(Nc2ccccc2C(=O)O)c1C [MEFENAMIC ACID]	2.49
CC1=CC(=O)c2ccccc2C1=O [MENADIONE]	2.27

Structure (SMILES)	log Ks
CCC1(c2ccccc2)C(=O)NC(=O)N(C)C1=O (stereo unspecified) [MEPHOBARBITAL]	3.16
COc1ccc(O)cc1 [MEQUINOL]	2.21
Cc1cccc(O)c1 [METACRESOL]	1.98
CO [METHYL ALCOHOL]	-0.49
COC(=O)c1ccccc1 [METHYL BENZOATE]	2.5
CN1C(=O)CN=C(c2ccccc2)c2cc([N+](=O)[O-])ccc21 [NIMETAZEPAM]	1.73
O=C1CN=C(c2ccccc2)c2cc([N+](=O)[O-])ccc2N1 [NITRAZEPAM]	1.97
O=[N+]([O-])c1ccccc1 [NITROBENZENE]	2.04
CCCCCCCCO [OCTANOL]	3.17
O=[N+]([O-])c1ccc(O)cc1 [P-NITROPHENOL]	2.39
Cc1ccc(C)cc1 [P-XYLENE]	2.38
O=C(O)c1ccc(O)cc1 [PARABEN]	2.2
Oc1ccc(Cl)cc1 [PARACHLOROPHENOL]	2.61
OCc1ccc(O)cc1 [PARAHYDROXYBENZYL ALCOHOL]	2.16
C[C@@H]1C[C@H]2[C@@H]3C[C@H](F)C4=CC(=O)C=C[C@]4(C)[C@H]3[C@@H](O)C[C@]2(C)[C@@]1(O)C(=O)CO [PARAMETHASONE]	3.4
CCC(=O)c1ccc(O)cc1 [PAROXYPROPIONE]	2.63
CCCC(C)C1(CC)C(=O)NC(=O)NC1=O (stereo unspecified) [PENTOBARBITAL]	3.01
c1ccc2c(c1)cnc1ccccc12 [PHENANTHRIDINE]	2.57
c1ccc2nc3ccccc3nc2c1 [PHENAZINE]	2.41
CCOc1ccccc1 [PHENETOLE]	2.49
CCC1(c2ccccc2)C(=O)NC(=O)NC1=O [PHENOBARBITAL]	3.22
Oc1ccccc1 [PHENOL]	1.98
c1ccc2c(c1)Nc1ccccc1S2 [PHENOTHIAZINE]	2.73
c1ccc2c(c1)Nc1ccccc1O2 [PHENOXAZINE]	2.69
O=C(O)Cc1ccccc1 [PHENYLACETIC ACID]	2.1
OCCc1ccccc1 [PHENYLETHYL ALCOHOL]	2.15

Structure (SMILES)	log Ks
CC(=O)OCC(=O)[C@@]1(O)CC[C@H]2[C@@H]3CCC4=CC(=O)C=C[C@]4(C)[C@H]3[C@@H](O)C[C@@]21C [PREDNISOLONE ACETATE]	3.76
C[C@]12C=CC(=O)C=C1CC[C@@H]1[C@@H]2[C@@H](O)C[C@@]2(C)[C@H]1CC[C@]2(O)C(=O)CO [PREDNISOLONE]	3.56
NC(=O)CCC/N=C(\c1ccc(Cl)cc1)c1cc(F)ccc1O [PROGABIDE]	2.53
c1ccc2ncccc2c1 [QUINOLINE]	2.12
CC(=O)S[C@@H]1CC2=CC(=O)CC[C@]2(C)[C@H]2CC[C@@]3(C)[C@@H](CC[C@@]34CCC(=O)O4)[C@H]12 [SPIRONOLACTONE]	4.44
Nc1ccc(S(=O)(=O)Nc2ncccn2)cc1 [SULFADIAZINE]	2.52
COc1cc(NS(=O)(=O)c2ccc(N)cc2)nc(OC)n1 [SULFADIMETHOXINE]	2.26
Cc1ccnc(NS(=O)(=O)c2ccc(N)cc2)n1 [SULFAMERAZINE]	1.97
COc1cc(NS(=O)(=O)c2ccc(N)cc2)nc(C)n1 [SULFAMETOMIDINE]	2.33
COc1cc(NS(=O)(=O)c2ccc(N)cc2)ncn1 [SULFAMONOMETHOXINE]	2.48
Nc1ccc(S(=O)(=O)Nc2ccnn2-c2ccccc2)cc1 [SULFAPHENAZOLE]	2.35
Nc1ccc(S(=O)(=O)Nc2ccccn2)cc1 [SULFAPYRIDINE]	2.7
Cc1cc(NS(=O)(=O)c2ccc(N)cc2)nc(C)n1 [SULFISOMIDINE]	2.1
Cc1noc(NS(=O)(=O)c2ccc(N)cc2)c1C [SULFISOXAZOLE]	2.32
CC(C)(C)O [TERT-BUTANOL]	1.68
C1CCOC1 [TETRAHYDROFURAN]	1.47
CCCC(C)C1(CC)C(=O)NC(=S)NC1=O (stereo unspecified) [THIOPENTAL]	3.28
Cc1cccc(N(C)C(=S)Oc2ccc3ccccc3c2)c1 [TOLNAFTATE]	3.83
CC1(C)O[C@@H]2C[C@H]3[C@@H]4CCC5=CC(=O)C=C[C@]5(C)[C@@]4(F)[C@@H](O)C[C@]3(C)[C@]2(C(=O)CO)O1 [TRIAMCINOLONE ACETONIDE]	3.51
C[C@]12C=CC(=O)C=C1CC[C@H]1[C@@H]3C[C@@H](O)[C@](O)(C(=O)CO)[C@@]3(C)C[C@H](O)[C@@]12F [TRIAMCINOLONE]	3.37
CCCOC/C(=N\c1ccc(Cl)cc1C(F)(F)F)n1ccnc1 [TRIFLUMIZOLE]	2.66
C[C@H](CCC(=O)O)[C@H]1CC[C@H]2[C@@H]3[C@@H](O)C[C@@H]4C[C@H](O)CC[C@]4(C)[C@H]3CC[C@]12C [URSODIOL]	4.51
c1ccc2c(c1)Cc1ccccc1O2 [XANTHENE]	2.71
Cc1ccc(O)cc1 [p-CRESOL]	2.4
